Measurements: PMC11472313, “Development of Fragment-Based Inhibitors of the Bacterial Deacetylase LpxC with Low Nanomolar Activity” (Journal of Medicinal Chemistry, 2024)
Values after ≈ are worked out from the molar mass of the structure shown. Values joined by “and” are separate entries in the source; they are usually repeats but may differ in a detail not shown here. Equal entries are not always repeated.

How the values were obtained:
E. coli ATCC 35218 = test: disc diffusion assay; assay type: cell-based; conditions: 0.15 μmol per 6 mm disc
Procedure: (§1) In the performed disc diffusion assays, indole derivatives (S)-13h, (S)-13i, and (S)-13j caused promising halos of growth inhibition.
(§2) The disc diffusion assays against E. coli TOP10 (Thermo Fisher, Waltham, USA), E. coli ATCC 35218, K. pneumoniae ATCC 700603, and P. aeruginosa ATCC 27853 were performed as follows: the bacteria were grown overnight on a Columbia blood agar plate (Oxoid, Basingstoke, UK), and one colony was suspended in sterile saline to yield a suspension of 0.5 McFarland standard. Using a sterile swab, the suspension was spread evenly onto Mueller–Hinton agar (Oxoid, Basingstoke, UK). 0.15 μmol of each compound (dissolved in 10 μL DMSO) was applied onto circular 6 mm diameter filter paper disks, which were then placed on the agar. After incubating the agar plates for 20 h at 37 °C, the diameter of the zone of growth inhibition was measured for each compound.

P. aeruginosa ATCC 27853 = test: disc diffusion assay; assay type: cell-based; conditions: 0.15 μmol per 6 mm disc
Procedure: as §1, §2

E. coli TOP10 = test: disc diffusion assay; assay type: cell-based; conditions: 0.15 μmol per 6 mm disc
Procedure: as §1, §2

E. coli D22 [1] = test: MIC, broth microdilution; assay type: cell-based; conditions: Escherichia coli, 20 h, 37 °C, LB
Method in brief: (§3)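 LB broth microdilution, inoculum 5 × 10^5 cfu mL^–1, 5% DMSO, 2-fold compound series 64–0.016 μg mL^–1 final, incubated 20 h at 37 °C. MIC was the lowest concentration preventing visible growth, from at least three runs on separate days.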

E. coli BL21(DE3) [2] = test: MIC, broth microdilution; assay type: cell-based; conditions: 20 h, 37 °C, LB; for MIC: Escherichia coli
Method in brief: as §3

[3] = test system: K. pneumoniae ATCC 700603; test: disc diffusion assay; assay type: cell-based, Klebsiella pneumoniae; conditions: 0.15 μmol per 6 mm disc
Procedure: as §1, §2

E. coli D22 [4] = test: disc diffusion assay; assay type: cell-based; conditions: 0.15 μmol per 6 mm disc
E. coli BL21(DE3) [5] = test: disc diffusion assay; assay type: cell-based; conditions: 0.15 μmol per 6 mm disc
LasB = biological target: T1, LasB (Pseudomonas aeruginosa, UniProt Q02RJ6); test: FRET-based LasB in vitro inhibition assay; assay type: biochemical, P. aeruginosa PA14; conditions: for inhibition at 20 µM: read-out: LasB Inhibition at 20 μM
T1 construct: The elastase LasB of P. aeruginosa is a secreted metalloprotease; endogenous in cells; host or cells: P. aeruginosa PA14 culture supernatant
T1 sequence (Q02RJ6 198-498): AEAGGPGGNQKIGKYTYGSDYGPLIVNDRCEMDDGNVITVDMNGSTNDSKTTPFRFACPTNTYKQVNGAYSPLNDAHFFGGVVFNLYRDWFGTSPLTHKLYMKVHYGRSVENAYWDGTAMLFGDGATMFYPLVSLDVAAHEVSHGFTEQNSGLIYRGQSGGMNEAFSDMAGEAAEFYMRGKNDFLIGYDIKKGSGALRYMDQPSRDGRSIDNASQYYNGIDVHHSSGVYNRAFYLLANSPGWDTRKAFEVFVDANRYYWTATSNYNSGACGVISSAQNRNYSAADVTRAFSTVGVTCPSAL
Method in brief: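 FRET-based inhibition assay using LasB purified from P. aeruginosa PA14 culture supernatant; fluorescence read-out.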

E. coli LpxC C63A = biological target: T2, E. coli LpxC C63A (Escherichia coli, UniProt P0A725, C63A); test: fluorescence-based E. coli LpxC C63A enzyme inhibition assay; assay type: biochemical; conditions: Ki E. coli LpxC C63A, from IC50 via Cheng–Prusoff
T2 construct: made in house; host or cells: E. coli BL21(DE3)
T2 sequence (P0A725 whole entry C63A): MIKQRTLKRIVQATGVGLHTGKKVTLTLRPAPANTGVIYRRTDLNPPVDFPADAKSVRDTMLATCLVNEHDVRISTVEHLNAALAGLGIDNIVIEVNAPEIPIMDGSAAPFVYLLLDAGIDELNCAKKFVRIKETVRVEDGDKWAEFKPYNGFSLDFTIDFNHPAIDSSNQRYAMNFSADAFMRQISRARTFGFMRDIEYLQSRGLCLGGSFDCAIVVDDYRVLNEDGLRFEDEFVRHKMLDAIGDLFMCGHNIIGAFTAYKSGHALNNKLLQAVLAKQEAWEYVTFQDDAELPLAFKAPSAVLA
Method in brief: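 Purified E. coli LpxC C63A (15 nM) was incubated with 25 µM UDP-3-O-[(R)-3-hydroxymyristoyl]-GlcNAc in MES pH 6.0 buffer (2% DMSO) for 30 min at 37 °C. Compounds ranged from 20 nM to 20 µM. Product was derivatized with o-phthaldialdehyde/2-mercaptoethanol and read by fluorescence (ex 340/em 460), with IC50 converted to Ki via Cheng–Prusoff.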

Structure (SMILES) | Inhibition zone E. coli ATCC 35218 (E. coli ATCC 35218) [mm] | Inhibition zone P. aeruginosa ATCC 27853 (P. aeruginosa ATCC 27853) [mm] | Inhibition zone E. coli TOP 10 (E. coli TOP10) [mm] | MIC (E. coli D22 [1]) [µg/mL] | MIC E. coli BL21(DE3) (E. coli BL21(DE3) [2]) [µg/mL] | MIC (E. coli BL21(DE3) [2]) [µg/mL] | Inhibition zone K. pneumoniae ATCC 700603 [3] [mm] | Inhibition zone E. coli D22 (E. coli D22 [4]) [mm] | Inhibition zone E. coli BL21(DE3) (E. coli BL21(DE3) [5]) [mm] | LasB Inhibition at 20 μM (LasB) | inhibition at 20 µM (LasB) [%] | Ki (E. coli LpxC C63A) | IC50 (LasB) [nM]
O=C(NC[C@H](OCc1ccc(C#Cc2ccc(CN3CCOCC3)cc2)cc1)C(=O)NO)c1ccc2[nH]ccc2c1 [(S)-13j] | 21.0 ± 1.0 | 8.3 ± 0.6 | 22.3 ± 3.8 | 0.031 (≈ 0.0561 µM) | 2.0 (≈ 3.62 µM) | 1 to 4 (≈ 1.81 to 7.24 µM) | 8.0 ± 1.7 | 29.0 ± 1.6 | 20.0 ± 1.0 | little to no inhibitory activity | < 10 | 9.5 nM and 9.45 nM | 
O=C(NC[C@H](OCc1ccc(C#Cc2ccc(CN3CCOCC3)cc2)cc1)C(=O)NO)c1ccc[nH]1 [(S)-13k] | 23.0 ± 1.4 | 9.0 ± 1.4 | 27.0 ± 2.8 | 0.063 (≈ 0.125 µM) | 4.0 (≈ 7.96 µM) | 4 to 8 (≈ 7.96 to 15.9 µM) | 9.5 ± 0.7 | >30 | 23.3 ± 0.6 |  | 22.4 ± 3.1 | 97.1 ± 9.4 nM | 
O=C(NC[C@H](OCc1ccc(C#Cc2ccc(CN3CCOCC3)cc2)cc1)C(=O)NO)c1cc[nH]n1 [(S)-13l] | 25.5 ± 0.7 | 12.0 ± 0 | 30.5 ± 0.7 | 0.063 (≈ 0.125 µM) | 4.0 (≈ 7.94 µM) | 4 to 8 (≈ 7.94 to 15.9 µM) | 11.5 ± 0.7 | >30 | 24.7 ± 0.6 | little to no inhibitory activity | 11.6 ± 0.7 | 80.9 ± 9 nM | 
O=C(NC[C@H](OCc1ccc(C#Cc2ccc(CN3CCOCC3)cc2)cc1)C(=O)NO)c1cc(-c2ccccc2)[nH]n1 [(S)-13m] | 13.0 ± 1.7 | <6 | 14.7 ± 0.6 | 0.063 (≈ 0.109 µM) | 8.0 (≈ 13.8 µM) | 4 to 8 (≈ 6.9 to 13.8 µM) | <6 | 24.5 ± 1.8 | 11.3 ± 1.6 | little to no inhibitory activity | < 10 | 85.2 ± 21.7 nM | 
Cc1noc(C)c1C(=O)NC[C@H](OCc1ccc(C#Cc2ccc(CN3CCOCC3)cc2)cc1)C(=O)NO [(S)-13n] | 20.0 ± 1.7 | <6 | 24.0 ± 0 | 0.13 (≈ 0.244 µM) |  | 16 (≈ 30 µM) | 7.0 ± 1.0 | >30 | 20.8 ± 1.1 |  | 92.7 ± 0.7 | 127 ± 40 nM | 1800 ± 150
